Data taken from US20250051346A1 (priority 2021, published 2025).
Read-outs that look alike come from different tables or passages of the source.

Experiments:
5-HT2A [1] = molecular target: T1, 5-HT2A (Homo sapiens, UniProt P28223); assay: Serotonin 5-HT2A in vitro radioligand binding competition assay; design: purchased Epics Therapeutics S.A. (Belgium), contract assay FAST-0505B; host or cells: membrane extracts; conditions: [3H]-DOI radiotracer, membrane extracts, read-out: 5HT2A R[…] ACTIVITY
T1 sequence (P28223 whole entry): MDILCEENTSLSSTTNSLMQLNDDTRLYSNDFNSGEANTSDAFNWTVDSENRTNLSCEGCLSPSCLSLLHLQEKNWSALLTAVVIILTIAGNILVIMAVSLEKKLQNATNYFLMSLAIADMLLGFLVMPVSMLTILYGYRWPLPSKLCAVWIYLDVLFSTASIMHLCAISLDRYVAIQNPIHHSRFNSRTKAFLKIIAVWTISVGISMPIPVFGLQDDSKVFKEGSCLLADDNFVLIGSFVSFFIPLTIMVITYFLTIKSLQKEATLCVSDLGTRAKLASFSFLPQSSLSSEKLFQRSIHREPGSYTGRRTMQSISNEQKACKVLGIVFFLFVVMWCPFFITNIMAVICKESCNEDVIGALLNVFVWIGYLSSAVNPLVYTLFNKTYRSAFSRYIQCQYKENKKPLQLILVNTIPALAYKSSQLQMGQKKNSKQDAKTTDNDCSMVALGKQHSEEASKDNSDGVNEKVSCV
Procedure: Serotonin 5-HT2A In Vitro Radioligand Binding Competition Assay. The 5-HT2A radioligand binding competition assay was performed at Epics Therapeutics S.A. (Belgium, FAST-0505B) using conventional methods. Briefly, competition binding was performed in duplicate in the wells of a 96 well plate (Master Block, Greiner, 786201) containing binding buffer (optimized for each receptor), membrane extracts (amount of protein/well optimized for each receptor), radiotracer [^3H]-DOI (final concentration optimized for each receptor) and test compound. Nonspecific binding was determined by co-incubation with 200-fold excess of cold competitor. The samples were incubated in a final volume of 0.1 ml at a temperature and for a duration optimized for each receptor and then filtered over filter plates. Filters were washed six times with 0.5 ml of ice-cold washing buffer (optimized for each receptor) and 50 μl of Microscint 20 (Packard) were added in each well. The plates were incubated 15 min on an orbital shaker and then counted with a TopCount™ for 1 min/well.

5-HT2A [2] = molecular target: T1, 5-HT2A; assay: Serotonin 5-HT2A in vitro cellular IPOne agonism assay; assay type: cell-based; design: host or cells: CHO-K1; conditions: CHO-K1 cells, 60 min
Procedure: Serotonin 5-HT2A In Vitro Cellular IPOne Agonism Assay. The 5-HT2A IPOne HTRF assay was performed at Epics Therapeutics S.A. (Belgium, FAST-0505I) using conventional methods. Briefly, CHO-K1 cells expressing human recombinant 5-HT2A receptor grown to mid-log phase in culture media without antibiotics were detached with PBS-EDTA, centrifuged, and resuspended in medium without antibiotics buffer. 20,000 cells are distributed in a 96 well plate and incubated overnight at 37° C. with 5% CO2.
For agonist testing, the medium was removed and 20 μl of assay buffer plus 20 μl of test compound or reference agonist were added in each well. The plate was incubated for 60 min. at 37° C. with 5% CO2.
After addition of the lysis buffer containing IP1-d2 and anti-IP1 cryptate detection reagents, plates were incubated 1-hour at room temperature, and fluorescence ratios were measured according to the manufacturer specification, with the HTRF kit.

Structure (SMILES)	IC50 (5-HT2A [1]; benzofurans)	EC50 (5-HT2A [2]; benzofurans)	IC50 (5-HT2A [1]; benzothiophenes)	EC50 (5-HT2A [2]; benzothiophenes)
Fc1cccc2oc3c(c12)CN(C1CCC1)CCC3 [Compound 1, 2-cyclobutyl-10-fluoro-2,3,4,5-tetrahydro-1H-benzofuro[3,2-c]azepine]	> 10 µM	> 10 µM	–	–
Fc1cccc2oc3c(c12)CCN(C1CCC1)CC3 [Compound 2, 3-cyclobutyl-10-fluoro-2,3,4,5-tetrahydro-1H-benzofuro[2,3-d]azepine]	1 to 10 µM	1 to 10 µM	–	–
CN1CCc2oc3cccc(F)c3c2CC1 [Compound 3, 10-fluoro-3-methyl-2,3,4,5-tetrahydro-1H-benzofuro[2,3-d]azepine]	0.101 to 1 µM	0.101 to 1 µM	–	–
CN1CCCc2oc3cccc(F)c3c2C1 [Compound 4, 10-fluoro-2-methyl-2,3,4,5-tetrahydro-1H-benzofuro[3,2-c]azepine]	1 to 10 µM	> 10 µM	–	–
Fc1cccc2oc3c(c12)CN(CC(F)(F)F)CCC3 [Compound 5, 10-fluoro-2-(2,2,2-trifluoroethyl)-2,3,4,5-tetrahydro-1H-benzofuro[3,2-c]azepine]	> 10 µM	> 10 µM	–	–
Fc1ccc2c3c(oc2c1)CCCNC3 [Compound 6, 8-fluoro-2,3,4,5-tetrahydro-1H-benzofuro[3,2-c]azepine]	> 10 µM	1 to 10 µM	–	–
Fc1cccc2oc3c(c12)CNCCC3 [Compound 7, 10-fluoro-2,3,4,5-tetrahydro-1H-benzofuro[3,2-c]azepine]	> 10 µM	> 10 µM	–	–
Fc1cccc2oc3c(c12)CCN(CC(F)(F)F)CC3 [Compound 8, 10-fluoro-3-(2,2,2-trifluoroethyl)-2,3,4,5-tetrahydro-1H-benzofuro[2,3-d]azepine]	> 10 µM	1 to 10 µM	–	–
CN1CCCc2oc3cc(F)ccc3c2C1 [Compound 9, 8-fluoro-2-methyl-2,3,4,5-tetrahydro-1H-benzofuro[3,2-c]azepine]	1 to 10 µM	1 to 10 µM	–	–
Fc1cccc2oc3c(c12)CCNCC3 [Compound 10, 10-fluoro-2,3,4,5-tetrahydro-1H-benzofuro[2,3-d]azepine]	0.101 to 1 µM	0.101 to 1 µM	–	–
COc1ccc2c3c(oc2c1)CCCN(CC(F)(F)F)C3 [Compound 11, 8-methoxy-2-(2,2,2-trifluoroethyl)-2,3,4,5-tetrahydro-1H-benzofuro[3,2-c]azepine]	> 10 µM	> 10 µM	–	–
COc1ccc2c3c(oc2c1)CCCN(C1CCC1)C3 [Compound 12, 2-cyclobutyl-8-methoxy-2,3,4,5-tetrahydro-1H-benzofuro[3,2-c]azepine]	> 10 µM	> 10 µM	–	–
FC(F)(F)CN1CCCc2oc3ccccc3c2C1 [Compound 13, 2-(2,2,2-trifluoroethyl)-2,3,4,5-tetrahydro-1H-benzofuro[3,2-c]azepine]	> 10 µM	> 10 µM	–	–
COc1cccc2oc3c(c12)CCN(C1CCC1)CC3 [Compound 15, 3-cyclobutyl-10-methoxy-2,3,4,5-tetrahydro-1H-benzofuro[2,3-d]azepine]	1 to 10 µM	1 to 10 µM	–	–
COc1cccc2oc3c(c12)CCNCC3 [Compound 16, 10-methoxy-2,3,4,5-tetrahydro-1H-benzofuro[2,3-d]azepine]	0.101 to 1 µM	0.01 to 0.1 µM	–	–
COc1ccc2c3c(oc2c1)CCCN(C)C3 [Compound 17, 8-methoxy-2-methyl-2,3,4,5-tetrahydro-1H-benzofuro[3,2-c]azepine]	> 10 µM	> 10 µM	–	–
COc1cccc2oc3c(c12)CNCCC3 [Compound 18, 10-methoxy-2,3,4,5-tetrahydro-1H-benzofuro[3,2-c]azepine]	1 to 10 µM	1 to 10 µM	–	–
COc1ccc2c3c(oc2c1)CCCNC3 [Compound 19, 8-methoxy-2,3,4,5-tetrahydro-1H-benzofuro[3,2-c]azepine]	> 10 µM	> 10 µM	–	–
c1ccc2c3c(oc2c1)CCCN(C1CCC1)C3 [Compound 20, 2-cyclobutyl-2,3,4,5-tetrahydro-1H-benzofuro[3,2-c]azepine]	> 10 µM	> 10 µM	–	–
CN1CCCc2oc3ccccc3c2C1 [Compound 21, 2-methyl-2,3,4,5-tetrahydro-1H-benzofuro[3,2-c]azepine]	> 10 µM	> 10 µM	–	–

Structure (SMILES)	IC50 (5-HT2A [1]; benzofurans)	EC50 (5-HT2A [2]; benzofurans)	IC50 (5-HT2A [1]; benzothiophenes)	EC50 (5-HT2A [2]; benzothiophenes)
c1ccc2c3c(oc2c1)CCCNC3 [Compound 22, 2,3,4,5-tetrahydro-1H-benzofuro[3,2-c]azepine]	> 10 µM	> 10 µM	–	–
Fc1ccc2c3c(oc2c1)CCNCC3 [Compound 24, 8-fluoro-2,3,4,5-tetrahydro-1H-benzofuro[2,3-d]azepine]	0.101 to 1 µM	0.01 to 0.1 µM	–	–
COc1ccc2c3c(oc2c1)CCN(C1CCC1)CC3 [Compound 25, 3-cyclobutyl-8-methoxy-2,3,4,5-tetrahydro-1H-benzofuro[2,3-d]azepine]	> 10 µM	> 10 µM	–	–
COc1ccc2c3c(oc2c1)CCN(C)CC3 [Compound 26, 8-methoxy-3-methyl-2,3,4,5-tetrahydro-1H-benzofuro[2,3-d]azepine]	1 to 10 µM	> 10 µM	–	–
COc1ccc2c3c(oc2c1)CCNCC3 [Compound 27, 8-methoxy-2,3,4,5-tetrahydro-1H-benzofuro[2,3-d]azepine]	1 to 10 µM	1 to 10 µM	–	–
FC(F)(F)CN1CCc2oc3ccccc3c2CC1 [Compound 29, 3-(2,2,2-trifluoroethyl)-2,3,4,5-tetrahydro-1H-benzofuro[2,3-d]azepine]	> 10 µM	> 10 µM	–	–
c1ccc2c3c(oc2c1)CCNCC3 [Compound 31, 2,3,4,5-tetrahydro-1H-benzofuro[2,3-d]azepine]	0.101 to 1 µM	0.101 to 1 µM	–	–
COc1ccc2c3c(sc2c1)CCNCC3 [Compound 35, 8-methoxy-2,3,4,5-tetrahydro-1H-benzo[4,5]thieno[2,3-d]azepine]	–	–	1 to 10 µM	0.101 to 1 µM
CN1CCc2oc3cc(C(F)(F)F)ccc3c2CC1 [Compound 39, 3-methyl-8-(trifluoromethyl)-2,3,4,5-tetrahydro-1H-benzofuro[2,3-d]azepine]	1 to 10 µM	> 10 µM	–	–
CN1CCc2oc3cc(OC(F)(F)F)ccc3c2CC1 [Compound 40, 3-methyl-8-(trifluoromethoxy)-2,3,4,5-tetrahydro-1H-benzofuro[2,3-d]azepine]	1 to 10 µM	> 10 µM	–	–
CN1CCc2oc3cc(OCc4ccccc4)ccc3c2CC1 [Compound 41, 8-(benzyloxy)-3-methyl-2,3,4,5-tetrahydro-1H-benzofuro[2,3-d]azepine]	0.101 to 1 µM	> 10 µM	–	–
FC(F)(F)c1ccc2c3c(oc2c1)CCNCC3 [Compound 43, 8-(trifluoromethyl)-2,3,4,5-tetrahydro-1H-benzofuro[2,3-d]azepine]	1 to 10 µM	0.101 to 1 µM	–	–
FC(F)(F)Oc1ccc2c3c(oc2c1)CCNCC3 [Compound 44, 8-(trifluoromethoxy)-2,3,4,5-tetrahydro-1H-benzofuro[2,3-d]azepine]	1 to 10 µM	0.101 to 1 µM	–	–
c1ccc(COc2ccc3c4c(oc3c2)CCNCC4)cc1 [Compound 45, 8-(benzyloxy)-2,3,4,5-tetrahydro-1H-benzofuro[2,3-d]azepine]	1 to 10 µM	1 to 10 µM	–	–
Fc1ccc2c3c(sc2c1)CCNCC3 [Compound 46, 8-fluoro-2,3,4,5-tetrahydro-1H-benzo[4,5]thieno[2,3-d]azepine]	–	–	0.01 to 0.1 µM	< 0.01 µM
FC(F)(F)c1ccc2c3c(oc2c1)CCCNC3 [Compound 48, 8-(trifluoromethyl)-2,3,4,5-tetrahydro-1H-benzofuro[3,2-c]azepine]	1 to 10 µM	1 to 10 µM	–	–
FC(F)(F)Oc1ccc2c3c(oc2c1)CCCNC3 [Compound 49, 8-(trifluoromethoxy)-2,3,4,5-tetrahydro-1H-benzofuro[3,2-c]azepine]	1 to 10 µM	1 to 10 µM	–	–
c1ccc(COc2ccc3c4c(oc3c2)CCCNC4)cc1 [Compound 50, 8-(benzyloxy)-2,3,4,5-tetrahydro-1H-benzofuro[3,2-c]azepine]	1 to 10 µM	> 10 µM	–	–
c1ccc(COc2cccc3oc4c(c23)CNCCC4)cc1 [Compound 51, 10-(benzyloxy)-2,3,4,5-tetrahydro-1H-benzofuro[3,2-c]azepine]	1 to 10 µM	> 10 µM	–	–
CN1CCCc2oc3cc(C(F)(F)F)ccc3c2C1 [Compound 52, 2-methyl-8-(trifluoromethyl)-2,3,4,5-tetrahydro-1H-benzofuro[3,2-c]azepine]	1 to 10 µM	> 10 µM	–	–
